Read-outs that look alike come from different tables or passages of the source. Where a SMILES comes first, the peptide text is derived from it. [ ]: non-standard residue; d: D form.
Test system: 8-day Krocker sarcoma (S-180)
Settings: for Necrotic reaction shown after 24 h, number of animals / Death of animals / Inhibition of the tumor growth, % of the control: intravenous; for Necrotic reaction shown after 24 h, number of animals: mice with 8-day sarcoma S-180, 24 h; for Death of animals / Necrosis caused by constituent components of the glycopeptides: mice with sarcoma S-180; for Inhibition of the tumor growth, % of the control: tumor volume or weight after 4-5 days
[1] = single intravenous dose 100 mg/kg

Compound | Necrotic reaction shown after 24 h, number of animals (dose 50 mg/kg) | Inhibition of the tumor growth, % of the control (dose 50 mg/kg) | Necrotic reaction shown after 24 h, number of animals (dose 100 mg/kg) | Death of animals (dose 100 mg/kg) | Inhibition of the tumor growth, % of the control (dose 100 mg/kg) | Necrotic reaction shown after 24 h, number of animals (dose 250 mg/kg) | Death of animals (dose 250 mg/kg) | Inhibition of the tumor growth, % of the control (dose 250 mg/kg) | Necrosis caused by constituent components of the glycopeptides | further results
CC(=O)NC1C(OC2C(CO)OC(O)C(NC(C)=O)C2OC(C)C(=O)NC(C)C(=O)NC(CCC(=O)O)C(N)=O)OC(CO)C(O)C1O [Compound II, N-acetylglucosaminyl/1→4/N-acetylmuramyl-alanyl-D-isoglutamine] | 8/10 | 12 % of the control | 4/5 | 0 | 70 % of the control |  |  |  |  | Death of animals (dose 50 mg/kg): 0; Hemopoiesis [1]: not inhibited; Number of leukocytes [1]: substantially increased; Signs of toxicity [1]: no signs of toxicity are noticed; Test animals with selective necrosis of the tumor tissue covering substantially the entire tumor (single intravenous dose 100 mg/kg, 24 hours after administration): four out of five; Inhibition of the growth of the malignant tumor as compared to the control animals (single intravenous dose 100 mg/kg, after 5 days): 70%
CC(=O)NC1C(OC2C(CO)OC(O)C(NC(C)=O)C2OC(C)C(=O)NC(C)C(=O)NC(CCC(=O)O)C(=O)O)OC(CO)C(O)C1O [III, N-acetylglucosaminyl/1→4/N-acetylmuramyl-alanyl-D-glutamic acid] | 4/10 |  | 3/5 |  |  |  |  |  |  | 
CC(=O)N[C@H]1C(O[C@H]2[C@H](O[C@H](C)C(=O)O)[C@@H](NC(C)=O)C(O[C@H]3[C@H](O)[C@@H](NC(C)=O)C(O[C@H]4[C@H](O[C@H](C)C(=O)O)[C@@H](NC(C)=O)C(O)O[C@@H]4CO)O[C@@H]3CO)O[C@@H]2CO)O[C@H](CO)[C@@H](O)[C@@H]1O (stereo partly shown) [IX, N-acetylglucosaminyl /1→4/-N-acetylmuramyl/1→4/N-acetylglucosaminyl/1→4/N- acetylmuramic acid] |  |  |  |  |  | 0/10 | 0 | 0 % of the control | not caused | 
CC(=O)N[C@H]1C(O)O[C@H](CO)[C@@H](O)[C@@H]1O (stereo partly shown) [VI, N-acetylglucosamine] |  |  |  |  |  | 0.5 | 0 | 0 % of the control | not caused | 
CC(=O)N[C@H]1C(O)O[C@H](CO)[C@@H](O)[C@@H]1O[C@H](C)C(=O)O (stereo partly shown) [VII, N-acetylmuramic acid] |  |  | 0/8 | 0 | 37 % of the control | 0/8 | 25 | 52 % of the control | not caused | 
CC(=O)N[C@H]1C(O[C@H]2[C@H](O[C@H](C)C(=O)O)[C@@H](NC(C)=O)C(O)O[C@@H]2CO)O[C@H](CO)[C@@H](O)[C@@H]1O (stereo partly shown) [VIII, N-acetylglucosaminyl/1→4/N-acetylmuramic acid] |  |  | 0/10 | 0 | 0 % of the control | 0/10 | 0 | 0 % of the control | not caused | 
C[C@H](N)C(=O)N[C@H](CCC(=O)O)C(N)=O [X, Ala-D-Glu-NH2] (H-Ala-[dE]-NH2) |  |  | 0/10 | 0 | +28 % of the control |  |  |  | not caused | 
C[C@H](N)C(=O)N[C@H](CCC(=O)O)C(=O)O [XI, Ala-D-Glu] (H-Ala-[dE]-OH) |  |  | 0/8 | 0 | 37.3 % of the control |  |  |  | not caused | 
/1→4/-bis-[N-acetylglucosaminyl/1→4/N-acetylmuramyl-alanyl-D- isoglutamine] [V] | 3/5 | 66 % of the control |  |  |  |  |  |  |  | Death of animals (dose 50 mg/kg): 0
Amide of N^ε [Alanyl-D-glutamyl-D-iso-asparaginyl]-lysyl-D-alanine [XII] |  |  |  |  |  | 0/5 |  | 0 % of the control |  | 
N-acetyl-glucosaminyl/1→4/N-acetylmuramylalanine [Compound I] | 2/5 | 17 % of the control | 3/5 | 0 | 19 % of the control |  |  |  |  | Death of animals (dose 50 mg/kg): 0
amide of N^ε -[N-acetylglucosaminyl/1→4/N-acetylmuramyl-alanyl-D-glutamyl-D-iso- asparaginyl]-lysyl-D-alanine [IV] | 3/5 | 23 % of the control | 3/5 |  | 41 % of the control |  |  |  |  | 
